Data: US7750165B2, “Metaxalone polymorphs” (Fresenius Kabi Oncology Limited, priority 2005, dated 2010)
“And” between values parts separate entries of the source, which are not always exact repeats. Equal values may be shown once. Read-outs that look alike come from different tables or passages of the source. Blank lines part the entries; values can stand above or below the compound they belong to.

Test: Bioavailability and pharmacokinetic study of crystalline Forms A and B of metaxalone, oral suspension, plasma by HPLC
Type: in vivo, female wistar rat
Parameters: AUCin / AUCt / AUCt Mean / AUCin Mean: unit not given here
Experimental: A study was undertaken to compare the bioavailability and pharmacokinetic profile of the two crystalline Forms A and B of metaxalone in female wistar rat under fasting condition. A suspension of metaxalone form A and Form B having a concentration of 15.0 mg/ml was prepared using 0.1% Tween-80 in 0.25% carboxy methyl cellulose (CMC). The formulation was used for dosing as such without any further dilution.
Twelve rats were taken, out of which six rats were administered form A crystals of Metaxalone and other six rats were adminstered form B crystals of Metaxalone, in different injection volumes based on body weight, resulting in dose of 150 mg/kg. A total thirteen (0.6 ml) blood samples were collected from each rat into prelabeled tubes containing EDTA solution, by retro-orbital bleeding under mild ether anesthesia. The blood samples were withdrawn at time points of 0 (prior to dosing), 15, 30 mins, 1, 1.5, 2.0, 4.0, 6.0, 8.0, 10.0, 12.0, 24 and 48 hrs post administration. The samples were centrifuged at 4000 rpm for 10 mins at room temperature. Seperated plasma samples were transferred into prelabeled tubes and stored upright in cyrobox. These cyroboxes were then transfered into a deep freezer maintained at −20° C. for the final storage until the completion of analysis.
HPLC system of Shimadzu LC—2010CHT series equipped with shimadzu UV-VIS detector, analytical column YMC Pack ODS C-18, 5 μm, (150×4.6 mm) and a data acquisition system (LC solution software) were used for the quantitative determination of metaxalone in rat plasma.
The results were plotted using the conventional AUC method to calculate pharmacokinetic ters (Cmax, Tmax and AUC (area under the curve, a measure of total bioavailability). The pharmacokinetic results for the crystalline form A and B are summarized in Table-V

[1] = Form A relative to Form B, per rat number 1-6, oral 150 mg/kg, 150 mg/kg
[2] = Mean of N=6 rats, female wistar rat, oral 150 mg/kg, 150 mg/kg
[3] = female wistar rats, fasting, oral 150 mg/kg, plasma, Mean ± SD, 150 mg/kg
[4] = female wistar rats, fasting, oral 150 mg/kg, plasma, Mean ± SD, listed as Metaxalone- Form A, 150 mg/kg
[5] = female wistar rats, oral 150 mg/kg
[6] = female, Wistar, rat, plasma, po, 150 mg/kg, female wistar rats, fasting, oral 150 mg/kg, Mean ± SD
[7] = individual rats 1-6, female wistar rat, oral 150 mg/kg, 150 mg/kg
[8] = individual rats 1-6, female wistar rat, oral 150 mg/kg, 150 mg/kg, in h
[9] = individual rats 1-6, female wistar rat, oral 150 mg/kg, 150 mg/kg, in µg/mL
[10] = female wistar rats, fasting, oral 150 mg/kg, plasma, Mean ± SD (second Table IV), listed as Metaxalone- Form B, 150 mg/kg
[11] = female wistar rats, fasting, oral 150 mg/kg, plasma, Mean ± SD, listed as Metaxalone- Form B, 150 mg/kg

AUCin Mean [2]: 451.461
Clobs [3]: 0.36984 ± 0.1273 L/h/kg
Clobs (female wistar rats, fasting, oral 150 mg/kg, plasma, Mean ± SD, listed as Form-A, 150 mg/kg): 0.36984 ± 0.1273 L/h/kg
Clobs [4]: 0.36984 ± 0.1273 L/h/kg
Lambda z [4]: 0.119 ± 0.07 h⁻¹
Vzobs [4]: 3.46602 ± 0.9788 L/kg
bioavailability, based on the observed Cmax values [5]: bioavailable
AUC(0-t) (female, Wistar, rat, plasma, po, 150 mg/kg, Mean of N=6 rats, female wistar rat, oral 150 mg/kg, read-out: AUCt Mean): 325 µg·h/mL
Cmax (female, Wistar, rat, plasma, po, 150 mg/kg, Mean of N=6 rats, female wistar rat, oral 150 mg/kg, read-out: Cmax Mean): 37.7 µg/mL
Tmax (female, Wistar, rat, plasma, po, 150 mg/kg, Mean of N=6 rats, female wistar rat, oral 150 mg/kg, read-out: Tmax Mean): 1.5 h
AUC(0-inf) [6]: 451 ± 166 µg·h/mL
MRT last [6]: 5.49 ± 1.8 h
half-life [6]: 7.25 ± 2.9 h
AUC(0-inf) (female, Wistar, rat, plasma, po, 150 mg/kg, female wistar rats, fasting, oral 150 mg/kg, Mean ± SD (second Table IV)): 451 ± 166 µg·h/mL
AUC(0-t) (female, Wistar, rat, plasma, po, 150 mg/kg, female wistar rats, fasting, oral 150 mg/kg, plasma, Mean ± SD (second Table IV), read-out: AUClast): 325 ± 110 µg·h/mL
AUC(0-t) (female, Wistar, rat, plasma, po, 150 mg/kg, female wistar rats, fasting, oral 150 mg/kg, plasma, Mean ± SD, read-out: AUClast): 325 ± 110 µg·h/mL
Cmax (female, Wistar, rat, plasma, po, 150 mg/kg, female wistar rats, fasting, oral 150 mg/kg, plasma, Mean ± SD, read-out: Cmax): 37.7 ± 4.1 µg/mL
Tmax (female, Wistar, rat, plasma, po, 150 mg/kg, female wistar rats, fasting, oral 150 mg/kg, plasma, Mean ± SD, read-out: Tmax): 1.5 ± 0.3 h
MRT last (female, Wistar, rat, plasma, po, 150 mg/kg, female wistar rats, oral 150 mg/kg, mean ± SD, unit inferred): 5.49 ± 1.8 h
Cmax (female, Wistar, rat, plasma, po, 150 mg/kg, individual rats 1-6, female wistar rat, oral 150 mg/kg, read-out: Cmax): 43.1 µg/mL
Tmax [8]: 2.00 and 1.00
Compound: Cc1cc(C)cc(OCC2CNC(=O)O2)c1 (single isomer, unassigned) [Form A, 5-(3′,5′-dimethylphenoxy)methyl-2-oxazolidinone]
AUCin A/B % [1]: 328.5% and 110.5% and 69.0% and 37.7% and 291.3% and 120.9%
AUCt A/B % [1]: 196.7% and 84.4% and 73.7% and 40.4% and 255.3% and 88.1%
Cmax A/B % [1]: 111.2% and 77.4% and 89.4% and 90.9% and 103.7% and 85.0%
AUCin [7]: 646.72 and 398.52 and 380.50 and 267.03 and 667.12 and 348.88
AUCt [7]: 371.39 and 259.03 and 283.70 and 252.67 and 530.31 and 251.62
Cmax [9]: 33.77 and 38.46 and 39.32 and 39.57 and 31.90

AUCt Mean [2]: 333.329
Tmax Mean (Mean of N=6 rats, female wistar rat, oral 150 mg/kg, 150 mg/kg, in h): 2.083
Cmax Mean (Mean of N=6 rats, female wistar rat, oral 150 mg/kg, 150 mg/kg, in µg/mL): 40.735
AUCinf [10]: 389.07 ± 200.6 µg·h/mL
AUClast [10]: 333.32 ± 159.9 µg·h/mL
AUCinf [3]: 389.07±200.6 hrμg/ml
AUClast [3]: 333.32±159.9 hrμg/ml
Clobs [3]: 0.47272 ± 0.2147 L/h/kg
Cmax [3]: 40.73 ± 2.8 µg/mL
Half Life [3]: 4.49 ± 1.7 h
MRTlast [3]: 5.50 ± 1.8 h
Tmax [3]: 2.08 ± 1.4 h
Clobs [11]: 0.47272 ± 0.2147 L/h/kg
Lambda z [11]: 0.172 ± 0.05 h⁻¹
Vzobs [11]: 2.65418 ± 0.4222 L/kg
bioavailability, based on the observed Cmax values [5]: bioavailable
MRTlast (female wistar rats, oral 150 mg/kg, plasma, mean ± SD, unit not given, 150 mg/kg, in h): 5.50±1.8
AUC (female, Wistar, rat, plasma, po, 150 mg/kg, Mean of N=6 rats, female wistar rat, oral 150 mg/kg, read-out: AUCin Mean): 389 µg·h/mL
Cmax (female, Wistar, rat, plasma, po, 150 mg/kg, female wistar rats, oral 150 mg/kg, plasma, mean ± SD, no unit printed for this value, read-out: mean Cmax): 40.7 ± 2.8 µg/mL
Tmax [8]: 1.00 and 4.00 and 1.50
Compound: Cc1cc(C)cc(OCC2CNC(=O)O2)c1 (single isomer, unassigned) [Form B, 5-(3′,5′-dimethylphenoxy)methyl-2-oxazolidinone]
AUCin [7]: 196.86 and 360.78 and 551.70 and 707.50 and 229.04 and 288.56
AUCt [7]: 188.83 and 306.89 and 384.99 and 626.04 and 207.73 and 285.51
Cmax [9]: 38.75 and 43.65 and 43.04 and 43.27 and 38.16 and 37.54
